Data from ChEMBL document CHEMBL5465560, “Selectivity Literature for EUbOPEN Chemogenomic Library” (2024).
Each block holds one molecule with its values, some of them ahead of it.

Legend:
[1] = biological target: Mitogen-activated protein kinase kinase kinase 11 (Homo sapiens) (UniProt Q16584); test: Selectivity interaction (Kinase panel (Eurofins)) EUB0001564a MAP3K11; conditions: at 1 µM
[2] = biological target: Casein kinase II subunit alpha (Homo sapiens, UniProt P68400); test: Selectivity interaction (KinomeScan (DiscoverX)) EUB0000655a CSNK2A1; conditions: at 10 µM
Sequence of Casein kinase II subunit alpha (P68400 whole entry, looked up): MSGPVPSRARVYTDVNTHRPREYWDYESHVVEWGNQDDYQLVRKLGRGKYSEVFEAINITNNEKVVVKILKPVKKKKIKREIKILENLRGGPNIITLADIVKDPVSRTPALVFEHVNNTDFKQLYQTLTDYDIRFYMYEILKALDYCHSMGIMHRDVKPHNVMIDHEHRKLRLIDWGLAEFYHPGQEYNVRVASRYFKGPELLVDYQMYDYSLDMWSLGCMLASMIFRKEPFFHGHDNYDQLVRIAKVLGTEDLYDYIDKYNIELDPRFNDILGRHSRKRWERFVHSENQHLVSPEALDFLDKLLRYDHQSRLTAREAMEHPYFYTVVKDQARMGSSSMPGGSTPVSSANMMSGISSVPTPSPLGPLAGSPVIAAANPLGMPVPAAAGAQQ

[3] = biological target: Dual specificity mitogen-activated protein kinase kinase 2 (Homo sapiens) (UniProt P36507); test: Selectivity interaction (KinomeScan (DiscoverX)) EUB0000607a MAP2K2; conditions: at 10 µM
Sequence of Dual specificity mitogen-activated protein kinase kinase 2 (Homo sapiens) (P36507 whole entry): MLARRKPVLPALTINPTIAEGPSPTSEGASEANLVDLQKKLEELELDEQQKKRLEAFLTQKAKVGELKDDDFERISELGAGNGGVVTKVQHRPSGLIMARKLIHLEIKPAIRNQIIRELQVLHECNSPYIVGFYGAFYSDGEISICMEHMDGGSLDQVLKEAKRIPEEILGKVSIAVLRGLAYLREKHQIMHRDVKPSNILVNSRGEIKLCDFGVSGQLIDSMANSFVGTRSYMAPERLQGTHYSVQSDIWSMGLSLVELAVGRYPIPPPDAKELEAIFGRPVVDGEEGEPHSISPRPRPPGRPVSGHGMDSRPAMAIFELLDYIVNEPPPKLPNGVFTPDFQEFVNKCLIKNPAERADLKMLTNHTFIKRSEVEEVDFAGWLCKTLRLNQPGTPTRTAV

[4] = biological target: Serine/threonine-protein kinase PLK2 (Homo sapiens, UniProt Q9NYY3); test: Selectivity interaction (KinomeScan (DiscoverX)) EUB0000607a PLK2; conditions: at 10 µM
Sequence of Serine/threonine-protein kinase PLK2 (Q9NYY3 whole entry, looked up): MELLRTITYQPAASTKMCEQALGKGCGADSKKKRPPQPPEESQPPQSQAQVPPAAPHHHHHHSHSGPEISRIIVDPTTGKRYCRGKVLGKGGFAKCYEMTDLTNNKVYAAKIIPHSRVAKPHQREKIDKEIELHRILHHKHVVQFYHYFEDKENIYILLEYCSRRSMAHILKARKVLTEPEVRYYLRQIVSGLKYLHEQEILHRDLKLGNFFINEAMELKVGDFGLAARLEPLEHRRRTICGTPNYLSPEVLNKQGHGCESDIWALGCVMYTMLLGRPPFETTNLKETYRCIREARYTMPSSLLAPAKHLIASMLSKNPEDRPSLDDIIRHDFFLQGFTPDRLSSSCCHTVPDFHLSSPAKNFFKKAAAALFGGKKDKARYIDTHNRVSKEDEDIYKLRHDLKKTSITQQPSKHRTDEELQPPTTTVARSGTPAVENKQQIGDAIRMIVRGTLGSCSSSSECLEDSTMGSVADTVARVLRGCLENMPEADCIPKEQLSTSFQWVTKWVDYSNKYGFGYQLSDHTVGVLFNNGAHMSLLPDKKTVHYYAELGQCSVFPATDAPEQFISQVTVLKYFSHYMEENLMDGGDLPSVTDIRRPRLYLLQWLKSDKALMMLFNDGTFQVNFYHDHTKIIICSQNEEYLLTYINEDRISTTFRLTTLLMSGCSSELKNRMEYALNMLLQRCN

[5] = biological target: Ribosomal protein S6 kinase alpha-6 (Homo sapiens, UniProt Q9UK32); test: Selectivity interaction (KinomeScan (DiscoverX)) EUB0000607a RPS6KA6; conditions: at 10 µM
Sequence of Ribosomal protein S6 kinase alpha-6 (Q9UK32 whole entry): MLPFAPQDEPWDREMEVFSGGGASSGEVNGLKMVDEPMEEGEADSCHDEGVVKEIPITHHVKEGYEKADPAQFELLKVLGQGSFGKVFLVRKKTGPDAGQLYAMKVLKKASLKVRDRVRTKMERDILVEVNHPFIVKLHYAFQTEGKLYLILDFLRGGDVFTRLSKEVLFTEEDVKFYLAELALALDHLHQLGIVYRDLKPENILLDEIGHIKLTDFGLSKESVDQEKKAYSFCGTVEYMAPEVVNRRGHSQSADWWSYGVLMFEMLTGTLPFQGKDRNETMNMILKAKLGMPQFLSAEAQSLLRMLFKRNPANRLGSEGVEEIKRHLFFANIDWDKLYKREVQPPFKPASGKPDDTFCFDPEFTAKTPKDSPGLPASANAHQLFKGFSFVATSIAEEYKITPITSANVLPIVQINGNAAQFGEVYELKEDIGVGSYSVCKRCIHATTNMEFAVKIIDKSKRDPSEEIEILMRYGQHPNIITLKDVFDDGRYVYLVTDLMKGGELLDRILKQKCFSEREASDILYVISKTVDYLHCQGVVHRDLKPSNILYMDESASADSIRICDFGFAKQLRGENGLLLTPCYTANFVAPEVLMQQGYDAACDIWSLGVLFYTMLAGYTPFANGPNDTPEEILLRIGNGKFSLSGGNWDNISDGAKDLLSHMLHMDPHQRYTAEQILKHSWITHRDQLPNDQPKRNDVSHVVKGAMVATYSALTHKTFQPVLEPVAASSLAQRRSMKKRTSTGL

[6] = biological target: T1, Serine/threonine-protein kinase 3 (Homo sapiens) (UniProt Q13188); test: Selectivity interaction (ActivX KiNativ screen (ex vivo kinase selectivity in human PBMCs)) EUB0001619a STK3; format: cell-based; conditions: PBMC, at 1 µM
T1 sequence (whole entry): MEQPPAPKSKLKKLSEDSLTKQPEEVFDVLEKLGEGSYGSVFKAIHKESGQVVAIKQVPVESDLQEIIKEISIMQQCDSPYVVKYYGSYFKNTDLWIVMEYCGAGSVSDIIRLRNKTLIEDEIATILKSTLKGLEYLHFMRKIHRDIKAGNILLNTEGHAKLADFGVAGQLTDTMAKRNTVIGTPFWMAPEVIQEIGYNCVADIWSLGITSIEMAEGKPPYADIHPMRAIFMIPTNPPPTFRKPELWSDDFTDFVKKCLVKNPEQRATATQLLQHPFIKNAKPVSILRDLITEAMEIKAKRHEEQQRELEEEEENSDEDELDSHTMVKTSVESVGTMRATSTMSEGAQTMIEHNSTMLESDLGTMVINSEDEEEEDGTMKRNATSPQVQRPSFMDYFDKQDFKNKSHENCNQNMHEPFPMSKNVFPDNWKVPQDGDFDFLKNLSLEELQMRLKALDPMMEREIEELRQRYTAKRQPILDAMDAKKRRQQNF

[7] = biological target: T2, Serine/threonine-protein kinase haspin (Homo sapiens) (UniProt Q8TF76); test: Selectivity interaction (KinomeScan (DiscoverX)) EUB0000229b GSG2; conditions: at 10 µM
T2 sequence (whole entry): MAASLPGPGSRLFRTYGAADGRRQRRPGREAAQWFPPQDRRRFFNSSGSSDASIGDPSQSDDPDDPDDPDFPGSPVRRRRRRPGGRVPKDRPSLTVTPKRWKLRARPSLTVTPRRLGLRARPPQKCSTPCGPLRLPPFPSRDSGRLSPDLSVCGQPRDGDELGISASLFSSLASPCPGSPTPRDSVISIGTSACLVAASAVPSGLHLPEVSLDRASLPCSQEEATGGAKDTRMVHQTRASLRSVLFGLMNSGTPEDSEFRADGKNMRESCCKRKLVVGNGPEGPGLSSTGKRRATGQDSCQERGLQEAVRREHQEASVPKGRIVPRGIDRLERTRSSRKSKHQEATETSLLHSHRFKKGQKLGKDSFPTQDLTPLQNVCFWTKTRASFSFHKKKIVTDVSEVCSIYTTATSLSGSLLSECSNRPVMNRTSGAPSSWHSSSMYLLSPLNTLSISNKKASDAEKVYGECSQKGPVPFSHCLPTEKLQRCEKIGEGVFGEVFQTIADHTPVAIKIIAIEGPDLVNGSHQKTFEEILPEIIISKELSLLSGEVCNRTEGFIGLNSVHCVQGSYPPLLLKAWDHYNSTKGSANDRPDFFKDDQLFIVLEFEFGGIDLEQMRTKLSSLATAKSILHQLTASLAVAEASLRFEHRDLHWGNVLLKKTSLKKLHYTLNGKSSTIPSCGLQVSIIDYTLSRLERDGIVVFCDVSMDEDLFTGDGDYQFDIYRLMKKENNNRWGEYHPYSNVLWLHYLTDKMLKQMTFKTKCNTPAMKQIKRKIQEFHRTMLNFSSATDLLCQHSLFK

[8] = biological target: Ephrin type-A receptor 5 (Homo sapiens) (UniProt P54756); test: Selectivity interaction (KinomeScan (DiscoverX)) EUB0000229b EPHA5; conditions: at 10 µM
Sequence of Ephrin type-A receptor 5 (Homo sapiens) (P54756 whole entry): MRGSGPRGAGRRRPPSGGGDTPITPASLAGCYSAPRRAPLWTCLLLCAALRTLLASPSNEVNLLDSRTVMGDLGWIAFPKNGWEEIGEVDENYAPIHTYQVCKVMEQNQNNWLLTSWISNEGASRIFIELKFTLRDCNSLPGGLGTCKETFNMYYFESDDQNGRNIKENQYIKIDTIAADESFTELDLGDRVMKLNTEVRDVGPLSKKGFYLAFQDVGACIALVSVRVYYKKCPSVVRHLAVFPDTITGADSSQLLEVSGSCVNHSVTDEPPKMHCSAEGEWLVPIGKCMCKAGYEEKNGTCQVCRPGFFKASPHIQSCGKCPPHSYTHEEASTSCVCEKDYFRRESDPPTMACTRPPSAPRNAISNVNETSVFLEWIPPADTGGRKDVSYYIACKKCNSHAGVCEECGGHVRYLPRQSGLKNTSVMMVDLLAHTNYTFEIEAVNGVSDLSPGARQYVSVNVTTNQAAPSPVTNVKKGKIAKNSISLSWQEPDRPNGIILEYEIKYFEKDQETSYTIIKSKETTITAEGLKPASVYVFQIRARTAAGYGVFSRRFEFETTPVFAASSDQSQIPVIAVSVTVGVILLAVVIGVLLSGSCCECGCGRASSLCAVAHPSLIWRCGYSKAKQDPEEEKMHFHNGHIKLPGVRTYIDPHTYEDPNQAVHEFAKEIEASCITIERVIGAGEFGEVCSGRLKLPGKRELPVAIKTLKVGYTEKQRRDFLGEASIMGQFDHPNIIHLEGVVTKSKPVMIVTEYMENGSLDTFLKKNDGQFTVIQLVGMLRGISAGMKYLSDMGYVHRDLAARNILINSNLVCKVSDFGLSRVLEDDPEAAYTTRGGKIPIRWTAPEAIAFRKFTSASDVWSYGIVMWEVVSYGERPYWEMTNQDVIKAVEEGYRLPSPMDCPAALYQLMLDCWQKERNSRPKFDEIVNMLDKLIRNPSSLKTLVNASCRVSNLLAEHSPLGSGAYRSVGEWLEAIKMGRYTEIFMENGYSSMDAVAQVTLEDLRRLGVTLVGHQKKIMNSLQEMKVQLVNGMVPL

[9] = biological target: T3, NUAK family SNF1-like kinase 1 (Homo sapiens) (UniProt O60285); test: Selectivity interaction (Adapta Assay) EUB0001632a NUAK1; conditions: at 10 µM
T3 sequence (whole entry): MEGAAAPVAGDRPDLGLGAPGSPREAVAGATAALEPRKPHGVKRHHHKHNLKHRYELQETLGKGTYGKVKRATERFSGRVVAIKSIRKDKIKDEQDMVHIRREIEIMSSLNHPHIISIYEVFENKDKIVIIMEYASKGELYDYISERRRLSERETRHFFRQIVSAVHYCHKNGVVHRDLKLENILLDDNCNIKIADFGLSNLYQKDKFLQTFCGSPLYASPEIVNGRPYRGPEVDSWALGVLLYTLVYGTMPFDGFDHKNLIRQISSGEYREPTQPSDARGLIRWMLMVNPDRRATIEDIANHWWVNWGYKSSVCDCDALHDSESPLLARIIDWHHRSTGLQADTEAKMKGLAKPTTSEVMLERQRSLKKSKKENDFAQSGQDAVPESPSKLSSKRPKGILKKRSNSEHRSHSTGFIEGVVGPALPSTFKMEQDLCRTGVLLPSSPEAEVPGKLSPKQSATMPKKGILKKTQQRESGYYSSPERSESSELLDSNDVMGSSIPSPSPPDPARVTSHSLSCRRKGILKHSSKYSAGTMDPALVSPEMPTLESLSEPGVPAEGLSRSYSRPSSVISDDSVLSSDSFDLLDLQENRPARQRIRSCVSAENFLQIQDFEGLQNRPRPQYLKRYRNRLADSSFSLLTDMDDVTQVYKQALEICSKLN

[10] = biological target: T4, Serine/threonine-protein kinase STK11 (Homo sapiens) (UniProt Q15831); test: Selectivity interaction (KinomeScan (DiscoverX)) EUB0000695a STK11; conditions: at 100 nM
T4 sequence (whole entry): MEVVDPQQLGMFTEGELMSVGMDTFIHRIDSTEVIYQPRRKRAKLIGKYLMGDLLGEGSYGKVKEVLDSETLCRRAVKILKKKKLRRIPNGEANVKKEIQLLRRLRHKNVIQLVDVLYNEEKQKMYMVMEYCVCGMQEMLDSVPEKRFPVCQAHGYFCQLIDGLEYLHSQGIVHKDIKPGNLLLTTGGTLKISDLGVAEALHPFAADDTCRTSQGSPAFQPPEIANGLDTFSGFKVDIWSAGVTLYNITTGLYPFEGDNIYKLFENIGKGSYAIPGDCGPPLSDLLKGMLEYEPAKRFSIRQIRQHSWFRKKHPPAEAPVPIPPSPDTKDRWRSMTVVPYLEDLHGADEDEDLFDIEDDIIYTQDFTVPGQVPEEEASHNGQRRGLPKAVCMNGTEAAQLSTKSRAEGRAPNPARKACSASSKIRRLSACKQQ

Sequence of Mitogen-activated protein kinase kinase kinase 11 (Homo sapiens) (Q16584 whole entry, looked up): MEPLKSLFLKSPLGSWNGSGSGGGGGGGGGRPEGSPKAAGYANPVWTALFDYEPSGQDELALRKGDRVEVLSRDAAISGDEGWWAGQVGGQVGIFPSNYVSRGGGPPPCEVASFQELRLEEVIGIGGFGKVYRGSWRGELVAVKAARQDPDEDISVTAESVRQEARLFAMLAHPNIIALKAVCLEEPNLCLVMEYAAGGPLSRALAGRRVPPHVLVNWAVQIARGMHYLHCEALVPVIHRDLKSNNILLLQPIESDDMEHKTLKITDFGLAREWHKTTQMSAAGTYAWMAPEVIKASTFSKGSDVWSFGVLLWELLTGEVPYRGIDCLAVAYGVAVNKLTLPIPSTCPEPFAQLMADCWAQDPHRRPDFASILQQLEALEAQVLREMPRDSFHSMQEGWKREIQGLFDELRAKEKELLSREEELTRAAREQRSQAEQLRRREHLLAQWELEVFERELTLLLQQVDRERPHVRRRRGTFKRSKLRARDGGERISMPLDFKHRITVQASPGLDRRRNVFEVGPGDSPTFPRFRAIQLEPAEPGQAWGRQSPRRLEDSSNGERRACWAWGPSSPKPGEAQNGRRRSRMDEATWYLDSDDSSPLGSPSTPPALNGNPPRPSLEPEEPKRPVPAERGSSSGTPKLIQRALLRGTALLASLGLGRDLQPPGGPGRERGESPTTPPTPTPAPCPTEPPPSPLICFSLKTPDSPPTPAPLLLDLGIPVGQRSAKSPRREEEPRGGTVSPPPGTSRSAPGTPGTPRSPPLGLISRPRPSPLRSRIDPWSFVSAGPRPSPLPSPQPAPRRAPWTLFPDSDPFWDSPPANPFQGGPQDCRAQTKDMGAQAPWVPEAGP

% of inhibition [1]: 21.1%
Structure (SMILES): CC[C@@H](Nc1c(C#N)c(-c2ccc(-c3cccc(C)c3F)cc2)nc2cnccc12)C(=O)O [BAY-091]

Structure (SMILES): CN(C)CCOc1ccc(-c2nc(-c3ccncc3)c(-c3ccc4c(c3)CC/C4=N\O)[nH]2)cc1
% of control [2]: 79%

Structure (SMILES): CNC(=O)Nc1ccc(-c2nc(N3CC4CCC(C3)O4)c3cnn(C4CCC5(CC4)OCCO5)c3n2)cc1
% of control [3]: 100%
% of control [4]: 100%
% of control [5]: 87%

Structure (SMILES): N#Cc1cccc(-c2c[nH]c3ncnc(N4CCOCC4)c23)c1
% of inhibition [6]: 71%

Structure (SMILES): COc1cc(N(C)c2ccnc3ccc(C(F)(F)F)cc23)cc(OC)c1OC
% binding [7]: 43%
% binding [8]: 97%

% of inhibition [9]: 15.2%
Structure (SMILES): Cn1cc(-n2cnc3c(NCc4nc5cc(Cl)c(Cl)cc5[nH]4)nc(N4CCOCC4)nc32)cn1

Structure (SMILES): Cc1cc(F)c(C(=O)Nc2cccc(-c3nncn3C(C)C)n2)cc1-n1cnc(C2CC2)c1
% of control [10]: 80%
